Laboratory results taken from US20230285364A1, “USE OF A DHODH INHIBITOR COMPOUND IN COMBINATION CANCER THERAPY” (Servier Pharmaceuticals LLC, priority 2020, published 2023).
Read-outs that look alike come from different tables or passages of the source.

What was measured:
[1] = cited from earlier work
[2] = system: MOLM13 xenograft model of AML; type: in vivo
Description: 5 × 10^6 MOLM13 cells were implanted subcutaneously into 5-6 week-old female CB17 SCID mice in serum free media with Matrigel 1:1. Tumor volume and body weights were monitored twice a week until the tumors reached ~ 150 mm^3. […] At the end of study, tumor, plasma, and liver tissues were collected at the indicated timepoints post-last dose for PK and biomarker analyses. […] Venetoclax was formulated with 60% Phosal 50, 30% PEG 400, and 10% ethanol and stored at 4° C.

[3] = system: OCILY19 xenograft model of DLBCL; type: in vivo
Description: 5 × 10^6 OCILY cells were implanted subcutaneously into 5-6 week-old female CB17 SCID mice in serum free media with Matrigel 1:1. Tumor volume and body weights were monitored twice a week until the tumors reached ~ 150 mm^3. […] At the end of study, tumor, plasma, and liver tissues were collected at the indicated timepoints post-last dose for PK and biomarker analyses. […] Venetoclax was formulated with 60% Phosal 50, 30% PEG 400, and 10% ethanol and stored at 4° C.

Nc1ncn([C@H]2C[C@H](O)[C@@H](CO)O2)c(=O)n1 [Decitabine, 4-amino-1-(2-deoxy-β-D-erythro-pentofuranosyl)-1,3,5-triazin-2(1H)one]
solubility ([1]; dimethylsulfoxide (DMSO)): soluble
solubility ([1]; ethanol/water (50/50), methanol/water (50/50) and methanol): slightly soluble
solubility ([1]; water): sparingly soluble

Cc1ccccc1-c1ccc(-c2cc(C(=O)O)c3c(c2)nnn3C)cc1 [Compound 1, 1-methyl-5-(2′-methyl-[1,1′-biphenyl]-yl)-1H-benzo[d][1,2,3]triazole-7-carboxylic acid]
Tumor Growth Inhibition ([2]; Compound 1 30 mg/kg alone): 24%
Tumor Growth Inhibition ([3]; Compound 1 30 mg/kg BID alone): 56%

4-(4-{ [2-(4-chlorophenyl)-4,4- dimethylcyclohex-1-en-1-yl]methyl}piperazin-1-yl)-N-({3-nitro-4-[(tetrahydro-2H-pyran-4-ylmethyl)amino]phenyl}sulfonyl)-2-(1H-pyrrolo[2,3-b]pyridin-5-yloxy)benzamide) [Venetoclax]
Tumor Growth Inhibition ([2]; Venetoclax 30 mg/kg alone): 27%
Tumor Growth Inhibition ([3]; Venetoclax 1 mg/kg alone): 3.6%
effect on tumor growth ([3]; venetoclax alone at the 1 m/kg dose): no effect

Nc1ncn([C@@H]2O[C@H](CO)[C@@H](O)[C@H]2O)c(=O)n1 [Azacitidine, 4-amino-1-β-D-ribofuranozyl-s-triazin-2(1H)-one]
solubility ([1]; acetone, ethanol and methyl ketone): insoluble
solubility ([1]; dimethylsulfoxide (DMSO)): soluble
solubility ([1]; ethanol/water (50/50), propylene glycol and polyethylene glycol): slightly soluble
solubility ([1]; water, water-saturated octanol, 5% dextrose in water, N-methyl-2-pyrrolidone, normal saline and 5% Tween 80 in water): sparingly soluble
